Read-outs that look alike come from different tables or passages of the source.
Experiments:
[1] = biological target: T1, yeast glyoxalase I (Saccharomyces cerevisiae, UniProt P50107); assay: Glyoxalase I enzyme kinetics assay; format: biochemical; conditions: yeast Glx-I, MG, 30° C., phosphate buffer pH 6.6
T1 construct: purchased Sigma
T1 sequence (P50107 1-326): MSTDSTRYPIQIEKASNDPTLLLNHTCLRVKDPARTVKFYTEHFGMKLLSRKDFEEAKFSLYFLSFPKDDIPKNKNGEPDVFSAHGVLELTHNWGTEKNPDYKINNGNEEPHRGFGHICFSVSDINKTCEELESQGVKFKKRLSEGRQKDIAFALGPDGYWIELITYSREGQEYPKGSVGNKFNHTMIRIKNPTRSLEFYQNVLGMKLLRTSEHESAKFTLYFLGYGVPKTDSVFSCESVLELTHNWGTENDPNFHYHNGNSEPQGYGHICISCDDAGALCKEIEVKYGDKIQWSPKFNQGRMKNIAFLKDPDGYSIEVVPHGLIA
Description: Glyoxalase I Enzyme Kinetics Assay. The glutathione analog, Ψ-GSH and asparthione were examined for their ability to act as substrates for the yeast glyoxalase I mediated […] of MG. The commercial 40% methylglyoxal solution was distilled to remove polymerization products. Enzyme assays were performed (30° C., 0.05 M phosphate buffer (pH 6.6)) using a thermostated Beckman DU® 7400 spectrophotometer. Fresh solutions of GSH, Ψ-GSH and asparthione were prepared on the day of the assays with distilled, deionized water. In each assay, the cell contained a total volume of 3.0 mL which was no more than 6.0 mM with respect to methylglyoxal and 1.3 mM with respect to GSH or its analogs. […] Data were analyzed utilizing an Enzyme kinetics module of Sigmaplot 9.0 from Systat Software Inc.

[2] = tested on: equine kidney γ-glutamyltranspeptidase; assay: γ-Glutamyltranspeptidase assay (stability to γ-GT mediated degradation); format: in vitro ADME
Description: γ-Glutamyltranspeptidase Assay. […] The plates were developed alongside authentic predicted degradation products with the solvent system: 4:1.5:2; Butanol/Acetic acid/Water. Visual detection of TLC spots was performed under UV and also by iodine and fluorescamine staining solution.

[3] = tested on: SH-SY-5Y cells; assay: Determination of intracellular MG concentration after glucose treatment; format: cell-based, human; conditions: 50 mM glucose three days, compound 500 μM
Description: Determination of Intracellular MG Concentration. SHSY5Y cells were seeded in a T150 flask and allowed to grow for 24 h. The next day, cells were treated with glucose (50 mM) in the presence and the absence of GSH or Ψ-GSH (500 μM). Cells without glucose treatment were used as a control. After 3 days of treatment, the cell pellet was collected and sonicated in 1 mL of PBS buffer to obtain cell lysates, which were derivatized as follows: 1 mL of cell lysate+0.2 mL 5 M HClO4+0.2 mL 10 mM 1,2 diaminobenzene+0.1 mL 1 μM 5-methylquinoxaline (internal std.)+0.5 mL water to 2 mL final volume. Samples were incubated at room temperature overnight and then centrifuged. The supernatant was passed through a C-18 SPE cartridge which had been prepared by flushing 2-4 mL of acetonitrile followed by 2-4 mL of 10 mM KH2PO4 (pH 2.4). After evaporation of the acetonitrile layer, the solid obtained was redissolved in 0.2 mL of 20% acetonitrile in 10 mM KH2PO4 (pH=2.4). The concentration of MG derivative, 2-methylquinoxaline, was measured using a Beckman Coulter Gold chromatography system. The column was Varian Microsorb-MV 300-5 25 cm C18 column (4.6 mm internal diameter and 5 μm particle diameter). The mobile phase was 80 vol % of 10 mM KH2PO4 and 20 vol % of HPLC grade acetonitrile. […]

[4] = tested on: SH-SY-5Y cells; assay: cells; format: cell-based; conditions: for protection against Aβ toxicity: 10 μM, pretreatment 24 h; for protection against Aβ toxicity / length of cytoprotection against Aβ toxicity: 20 μM Aβ (1-42); for inhibition at 1000 µM: Homo sapiens, SH-SY5Y, SH-SY-5Y, compound 1 mM 24 h; for length of cytoprotection against Aβ toxicity: pretreatment of SH-SY-5Y cells
Description: (§1) Cytotoxicity Studies: Protection against β-amyloid 1-42 cytotoxicity in SH-SY-5Y cells was measured by standard MTT assays. SH-SY-5Y cells were seeded in 96-well plates at the density of 30,000 cells/well. After overnight incubation, the cells were exposed to GSH or Ψ-GSH at a concentration of 1 mM for 24 h at 37° C. After 24 h of incubation, the drug-containing medium was replaced with media containing 20 μM β-amyloid 1-42 peptide and the incubation was allowed to continue for additional 24 hours after the addition of the drugs. At the end of the incubation, 20 μL of MTT stock solution (5 mg/mL) was added to each well and incubated for 3 h at 37° C. The MTT reaction medium was discarded and the purple-blue MTT formazan crystals were dissolved by the addition of 100 μL of 0.1 N HCl in isopropanol. The optical density (OD), a reflection mitochondrial function of the viable cells, was read directly with a microplate reader (BioTek SynergyHT, VT, USA) at 580 nm and a reference wavelength of 680 nm. Concentration response graphs were generated for each drug using GraphPad Prism software (GraphPad Software, Inc., San Diego, Calif., USA). Results are expressed as mean percent inhibition of β-amyloid toxicity with the standard error of the mean. In another set of experiments, cells were preincubated with a glyoxalase I inhibitor, S-(p-bromobenzylglutathione) (1 mM) for 24 hours before addition of βamyloid1-42 peptide (20 μM).
as §1, with “Protection” for “Cytotoxicity Studies: Protection”, “against β-amyloid^1-42” for “against β-amyloid 1-42”, “cells/well. […]” for “cells/well. After overnight incubation, the cells were exposed to GSH or Ψ-GSH at a concentration of 1 mM for 24 h at 37° C.”, “μM β-amyloid^1-42” for “μM β-amyloid 1-42”, “20 μl,” for “20 μL”, “mean.” for “mean. In another set of experiments, cells were preincubated with a glyoxalase I inhibitor, S-(p-bromobenzylglutathione) (1 mM) for 24 hours before addition of βamyloid1-42 peptide (20 μM).”

[5] = then 20 μM Aβ1-42 24 h, read-out: % Inhibition of Cell Growth with Aβ1-42
[6] = without Aβ1-42, read-out: % Inhibition of Cell Growth without Aβ1-42

Compound	slope for initial velocity vs. substrate concentration [1]	degradation during incubation with γ-GT ([2]; incubation with γ-GT for up to 24 h)	glucose-induced intracellular MG accumulation [3]	protection against Aβ toxicity [4]	inhibition at 1000 µM [4, 5] [%]	inhibition at 1000 µM [4, 6] [%]	length of cytoprotection against Aβ toxicity [4]	time to complete degradation by γ-GT ([2]; incubation with γ-GT) [min]
N[C@@H](CNC(=O)N[C@@H](CS)C(=O)NCC(=O)O)C(=O)O [Ψ-GSH, γ-Gla-Cys-Gly-OH]	0.0498±0.0040	No appreciable degradation	prevented glucose-induced intracellular MG accumulation	fully protected the cells	4	0	five days	
N[C@@H](CCC(=O)N[C@@H](CS)C(=O)NCC(=O)O)C(=O)O [GSH, Glutathione]	0.1954±0.0216		prevented glucose-induced intracellular MG accumulation	fully protected the cells	12	0	significant only until day 3	≤ 30

Reference: patent US9394338B2, “Glutathione analogs and uses thereof” (REGENTS OF THE UNIVERSITY OF MINNESOTA, priority 2011, dated 2016)
